According to patent US7605155B2, “Substituted pyrazolo[1,5-a]pyrimidines as protein kinase inhibitors” (priority 2002, dated 2009):
pIC50: −log10 of the molar value.

The compounds below were run against CDK2 (either cyclin A or E-dependent) (Homo sapiens, UniProt P24941) (assay: biochemical).
From the text: BACULOVIRUS CONSTRUCTIONS: Cyclins A and E were cloned into pFASTBAC (Invitrogen) by PCR, with the addition of a GluTAG sequence (EYMPME) at the amino-terminal end to allow purification on anti-GluTAG affinity columns. […] CDK2 was also cloned into pFASTBAC by PCR, with the addition of a haemaglutinin epitope tag at the carboxy-terminal end ([…]).
ENZYME PRODUCTION: Recombinant baculoviruses expressing cyclins A, E and CDK2 were infected into SF9 cells at a multiplicity of infection (MOI) of 5, for 48 hrs. Cells were harvested by centrifugation at 1000 RPM for 10 minutes. Cyclin-containing (E or A) pellets were combined with CDK2 containing cell pellets and lysed on ice for 30 minutes in five times the pellet volume of lysis buffer containing 50 mM Tris pH 8.0, 0.5% NP40, 1 mM DTT and protease/phosphatase inhibitors (Roche Diagnostics GmbH, Mannheim, Germany). Mixtures were stirred for 30-60 minutes to promote cyclin-CDK2 complex formation. Mixed lysates were then spun down at 15000 RPM for 10 minutes and the supernatant retained. 5 ml of anti-GluTAG beads (for one liter of SF9 cells) were then used to capture cyclin-CDK2 complexes. Bound beads were washed three times in lysis buffer. Proteins were competitively eluted with lysis buffer containing 100-200 ug/mL of the GluTAG peptide. Eluate was dialyzed overnight in 2 liters of kinase buffer containing 50 mM Tris pH 8.0, 1 mM DTT, 10 mM MgCl2, 100 uM sodium orthovanadate and 20% glycerol. Enzyme was stored in aliquots at −70° C.
IN VITRO KINASE ASSAY: CDK2 kinase assays (either cyclin A or E-dependent) were performed in low protein binding 96-well plates (Corning Inc, Corning, N.Y.). Enzyme was diluted to a final concentration of 50 μg/ml in kinase buffer containing 50 mM Tris pH 8.0, 10 mM MgCl2, 1 mM DTT, and 0.1 mM sodium orthovanadate. The substrate used in these reactions was a biotinylated peptide derived from Histone H1 (from Amersham, UK). The substrate was thawed on ice and diluted to 2 μM in kinase buffer. Compounds were diluted in 10% DMSO to desirable concentrations. For each kinase reaction, 20 μl of the 50 μg/ml enzyme solution (1 μg of enzyme) and 20 μl of the […] substrate solution were mixed, then combined with 10 μl of diluted compound in each well for testing. […] The reaction was allowed to run for 1 hour at room temperature. The reaction was stopped by adding 200 μl of stop buffer containing 0.1% Triton X-100, 1 mM ATP, 5 mM EDTA, and 5 mg/ml streptavidine coated SPA beads (from Amersham, UK) for 15 minutes. The SPA beads were then captured onto a 96-well GF/B filter plate (Packard/Perkin Elmer Life Sciences) using a Filtermate universal harvester (Packard/Perkin Elmer Life Sciences.). Non-specific signals were eliminated by washing the beads twice with 2M NaCl then twice with 2 M NaCl with 1% phosphoric acid. The radioactive signal was then measured using a TopCount 96 well liquid scintillation counter (from Packard/Perkin Elmer Life Sciences).
IC50 DETERMINATION: Dose-response curves were plotted from inhibition data generated, each in duplicate, from 8 point serial dilutions of inhibitory compounds. Concentration of compound was plotted against % kinase activity, calculated by CPM of treated samples divided by CPM of untreated samples. To generate IC50 values, the dose-response curves were then fitted to a standard sigmoidal curve and IC50 values were derived by nonlinear regression analysis. These kinase activities were generated by using cyclin A or cyclin E using the above-described assay.

SMILES	pIC50
Nc1cc(C2CCCNC2)nc2c(-c3coc(C=NO)c3)cnn12 (stereo not shown)	7.40
Nc1c(Br)c(C2CCCNC2)nc2c(-c3cncs3)cnn12 (stereo not shown)	7.02
CCn1cc(-c2cnn3c(N)c(Br)c(C4CCCNC4)nc23)cn1 (stereo not shown)	6.39
N#Cc1cc(-c2cnn3c(N)c(Br)c(C4CCCNC4)nc23)co1 (stereo not shown)	6.85
Nc1cc(C2CCCNC2)nc2c(-c3ncon3)cnn12 (stereo not shown)	5.60
Cn1cc(-c2cnn3c(N)c(Br)c(CCNCc4ccccc4)nc23)cn1	5.43
Nc1c(Br)c(C2CCCNC2)nc2c(-c3cnccn3)cnn12 (stereo not shown)	5.33
Nc1cc(C2CCCNC2)nc2c(-c3cscn3)cnn12 (stereo not shown)	5.00
Cn1cc(-c2cnn3c(N)cc([C@@H]4CC[C@H](N)C4)nc23)cn1	5.43
N#Cc1ccc(-c2cnn3c(N)c(Br)c(C4CCCNC4)nc23)cn1 (stereo not shown)	6.06
Cn1cc(-c2cnn3c(N)c(Br)c([C@H]4CCC[C@@H](N)C4)nc23)cn1	6.36
Cn1cc(-c2cnn3c(N)cc([C@H]4CC[C@@H](CO)NC4)nc23)cn1	4.92
N#Cc1cncc(-c2cnn3c(N)c(Br)c(C4CCCNC4)nc23)c1 (stereo not shown)	5.24
Cn1cc(-c2cnn3c(N)c(Br)c([C@@H]4CC[C@@H](N)C4)nc23)cn1	6.92
Cn1cc(-c2cnn3c(NCc4ccccc4)cc(C4CCCNC4)nc23)cn1 (stereo not shown)	4.51
Cn1cc(-c2cnn3c(N)c(Br)c(CC4CNCCO4)nc23)cn1 (stereo not shown)	5.21
Cn1cc(-c2cnn3c(N)cc(C4(F)CCCNC4)nc23)cn1 (stereo not shown)	5.22
CC(=O)N1CCNCC(c2nc3c(-c4cnn(C)c4)cnn3c(N)c2Br)C1 (stereo not shown)	5.59
Cn1cc(-c2cnn3c(N)cc([C@@H]4CC[C@@H](N)C4)nc23)cn1	5.25
Nc1c(Br)c(C2CCCNC2)nc2c(-c3cnn(CCO)c3)cnn12 (stereo not shown)	6.70
N#Cc1cc(-c2cnn3c(N)c(Cl)c(C4CCCNC4)nc23)co1 (stereo not shown)	6.68
Nc1c(Br)c(C2CCCNC2)nc2c(-c3cnoc3)cnn12 (stereo not shown)	6.80
Cn1cc(-c2cnn3c(N)c(Br)c(C4CNCCNC4)nc23)cn1	6.14
Cn1cc(-c2cnn3c(N)c(Br)c([C@@H]4CC[C@H](N)C4)nc23)cn1	6.62
Nc1c(Br)c(C2CCCNC2)nc2c(-c3cscn3)cnn12 (stereo not shown)	5.24

SMILES	pIC50
CC(C)n1cc(-c2cnn3c(N)cc(C4CCCNC4)nc23)cn1 (stereo not shown)	5.08
Cn1cc(-c2cnn3c(N)c(Br)c(C4CNCCN(S(C)(=O)=O)C4)nc23)cn1 (stereo not shown)	5.51
CCNc1c(Br)c(C2CCCNC2)nc2c(-c3cnn(C)c3)cnn12 (stereo not shown)	5.24
CN(C)C(=O)Cn1cc(-c2cnn3c(N)c(Br)c(C4CCCNC4)nc23)cn1 (stereo not shown)	5.85
Nc1c(Br)c(C2CCCNC2)nc2c(-c3ccc4c(c3)OCO4)cnn12 (stereo not shown)	6.24
Cn1cc(-c2cnn3c(N)c(I)c(C4CCCNC4)nc23)cn1 (stereo not shown)	7.70
Nc1cc(C2CCCNC2)nc2c(-c3cnoc3)cnn12 (stereo not shown)	6.10
N#CCc1ccc(-c2cnn3c(N)cc(C4CCCNC4)nc23)cc1 (stereo not shown)	4.92
COC(=O)[C@@H]1CC[C@H](c2cc(N)n3ncc(-c4cnn(C)c4)c3n2)CN1	4.85
Cn1cc(-c2cnn3c(NC4CCCC4)cc(C4CCCNC4)nc23)cn1 (stereo not shown)	4.60
Nc1cc(C2CCCNC2)nc2c(-c3ccc(CO)cc3)cnn12 (stereo not shown)	5.85
CC(C)Cc1ncc(-c2cnn3c(N)cc(C4CCCNC4)nc23)s1 (stereo not shown)	5.89
Cn1cc(-c2cnn3c(N)c(Br)c(C4CCCN(CCO)C4)nc23)cn1 (stereo not shown)	5.76
Cn1cc(-c2cnn3c(N)c(Br)c(CC4CNCCN4)nc23)cn1 (stereo not shown)	5.24
Nc1cc(C2CCCNC2)nc2c(-c3cnn(CCO)c3)cnn12 (stereo not shown)	5.37
Cn1cc(-c2cnn3c(N)c(Br)c(N4CC[C@H](N)C4)nc23)cn1	5.92
N#Cc1ccc(-c2cnn3c(N)cc(C4CCCNC4)nc23)cn1 (stereo not shown)	5.64
CC(C)N1CCNCC(c2nc3c(-c4cnn(C)c4)cnn3c(N)c2Br)C1 (stereo not shown)	5.59
CC(N)CCc1nc2c(-c3cnn(C)c3)cnn2c(N)c1Br (stereo not shown)	5.92
N#Cc1ccc(-c2cnn3c(N)c(Br)c(C4CCCNC4)nc23)cc1 (stereo not shown)	6.62
Cn1cc(-c2cnn3c(N)c(Br)c(C4CCCCN4)nc23)cn1 (stereo not shown)	4.55
C/C(=N\O)[C@@H]1CC[C@H](c2nc3c(-c4cnn(C)c4)cnn3c(N)c2Br)CN1	6.28
Nc1cc(C2CCCNC2)nc2c(-c3cncs3)cnn12 (stereo not shown)	6.68
Nc1cc(C2CCCNC2)nc2c(-c3cn[nH]c3)cnn12 (stereo not shown)	5.82
